Data from patent publication US12655116B2, “Substituted isophthalic acid diamides” (Bayer Aktiengesellschaft, priority 2020, dated 2026).

Tests used:
ECHCG [1] = experiment: Pre-emergence herbicidal action against ECHCG; format: in vivo, Echinochloa crus-galli
Method in brief: (§1)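 Pre-emergence soil-surface spray of formulated compound (WP or EC; 600 to 800 l/ha; 0.2% wetting agent) over seeds sown in sandy loam. After 3 weeks under greenhouse conditions, damage is estimated visually in percent against untreated plants.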

ALOMY [2] = experiment: Pre-emergence herbicidal action against ALOMY; format: in vivo, Alopecurus myosuroides; conditions: 80 g/ha, pre-emergence, scored visually after 3 weeks vs untreated controls (100% = plants have died, 0% = like control plants)
Method in brief: as §1

ABUTH [3] = experiment: Pre-emergence herbicidal action against ABUTH; format: in vivo, Abutilon theophrasti; conditions: for Pre-emergence action against ABUTH (herbicidal activity): 80 g/ha, scored visually after 3 weeks vs untreated controls (100% = plants have died, 0% = like control plants); for Pre-emergence action against ABUTH (herbicidal activity in percent): dosage 20 g/ha, scored visually after 3 weeks vs untreated controls, 100% = plants have died, 0% = like control plants
Method in brief: as §1

POLCO = experiment: Pre-emergence herbicidal action against POLCO; format: in vivo, Polygonum convolvulus; conditions: dosage 80 g/ha
Method in brief: as §1

VIOTR [4] = experiment: Pre-emergence herbicidal action against VIOTR; format: in vivo, Viola tricolor
Method in brief: as §1

AMARE [5] = experiment: Pre-emergence herbicidal action against AMARE; format: in vivo, Amaranthus retroflexus
Method in brief: as §1

ECHCG [6] = experiment: Post-emergence herbicidal action against ECHCG; format: in vivo, Echinochloa crus-galli
Method in brief: (§2)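 Spray, one-leaf stage: WP or EC compound in water, 600–800 l/ha, 0.2% wetting agent. Plants held about 3 weeks in the greenhouse, then visually rated in percent of kill compared with untreated controls.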

MATIN [7] = experiment: Post-emergence herbicidal action against MATIN; format: in vivo, Matricaria inodora; conditions: dosage 20 g/ha
Method in brief: as §2

PHBPU [8] = experiment: Post-emergence herbicidal action against PHBPU; format: in vivo, Pharbitis purpurea; conditions: dosage 20 g/ha
Method in brief: as §2

DIGSA [9] = experiment: Pre-emergence herbicidal action against DIGSA; format: in vivo, Digitaria sanguinalis
Method in brief: as §1

SETVI [10] = experiment: Pre-emergence herbicidal action against SETVI; format: in vivo, Setaria viridis
Method in brief: as §1

AVEFA [11] = experiment: Post-emergence herbicidal action against AVEFA; format: in vivo, Avena fatua; conditions: visual assessment about 3 weeks after treatment, 100% = plants have died, 0% = like control plants
Method in brief: as §2

VERPE [12] = experiment: Pre-emergence herbicidal action against VERPE; format: in vivo, Veronica persica
Method in brief: as §1

MATIN [13] = experiment: Pre-emergence herbicidal action against MATIN; format: in vivo, Matricaria inodora
Method in brief: as §1

DIGSA [14] = experiment: Post-emergence herbicidal action against DIGSA; format: in vivo, Digitaria sanguinalis; conditions: 20 g/ha
Method in brief: as §2

ABUTH [15] = experiment: Post-emergence herbicidal action against ABUTH; format: in vivo, Abutilon theophrasti; conditions: visual assessment about 3 weeks after treatment vs untreated controls
Method in brief: as §2

AVEFA [16] = experiment: Pre-emergence herbicidal action against AVEFA; format: in vivo, Avena fatua; conditions: for Pre-emergence action against AVEFA in %: 80 g/ha
Method in brief: as §1

VERPE [17] = experiment: Post-emergence herbicidal action against VERPE; format: in vivo, Veronica persica; conditions: 20 g/ha
Method in brief: as §2

SETVI [18] = experiment: Post-emergence herbicidal action against SETVI; format: in vivo, Setaria viridis
Method in brief: as §2

VIOTR [19] = experiment: Post-emergence herbicidal action against VIOTR; format: in vivo, Viola tricolor
Method in brief: as §2

AMARE [20] = experiment: Post-emergence herbicidal action against AMARE; format: in vivo, Amaranthus retroflexus; conditions: 20 g/ha, visual assessment about 3 weeks after treatment, 100% = plants have died, 0% = like control plants
Method in brief: as §2

ALOMY [21] = experiment: Post-emergence herbicidal action against ALOMY; format: in vivo, Alopecurus myosuroides; conditions: dosage 20 g/ha, visual assessment about 3 weeks after treatment vs untreated controls
Method in brief: as §2

PHBPU [22] = experiment: Pre-emergence herbicidal action against PHBPU; format: in vivo, Pharbitis purpurea; conditions: dosage 80 g/ha
Method in brief: as §1

[23] = 20 g/ha, scored visually after 3 weeks vs untreated controls, 100% = plants have died, 0% = like control plants
[24] = 80 g/ha, scored visually after 3 weeks vs untreated controls (100% = plants have died, 0% = like control plants)

| Compound | Pre-emergence action against ECHCG in % (ECHCG [1]; 80 g/ha) | Pre-emergence action against ALOMY (herbicidal activity) (ALOMY [2]) | Pre-emergence action against ABUTH (herbicidal activity) (ABUTH [3]) | Pre-emergence action against ABUTH (herbicidal activity in percent) (ABUTH [3]) | Pre-emergence action against VIOTR in % (VIOTR [4]; dosage 20 g/ha) | Pre-emergence action against VIOTR in % (VIOTR [4]; dosage 80 g/ha) | Pre-emergence action against AMARE in % (AMARE [5]; [23]) | Pre-emergence action against AMARE in % (AMARE [5]; [24]) | Post-emergence action against ECHCG in % (ECHCG [6]; dosage 5 g/ha) | Post-emergence action against ECHCG in % (ECHCG [6]; dosage 20 g/ha) | Post-emergence action against MATIN in % (MATIN [7]) | Post-emergence action against PHBPU in % (PHBPU [8]) | Pre-emergence action against SETVI in % (SETVI [10]; dosage 80 g/ha) | Post-emergence action at 20 g/ha against AVEFA in % (AVEFA [11]) | Pre-emergence action against VERPE in % (VERPE [12]; dosage 80 g/ha) | Pre-emergence action against MATIN in % (MATIN [13]; dosage 20 g/ha) | Pre-emergence action against MATIN in % (MATIN [13]; dosage 80 g/ha) | Post-emergence action against ABUTH in % (ABUTH [15]; dosage 20 g/ha) | Pre-emergence action against AVEFA in % (AVEFA [16]) | Post-emergence action against VERPE in % (VERPE [17]) | also measured |
| --- | --- | --- | --- | --- | --- | --- | --- | --- | --- | --- | --- | --- | --- | --- | --- | --- | --- | --- | --- | --- | --- |
| CCn1nnnc1NC(=O)c1ccc(C(F)(F)F)c(C(=O)NCC2CC2)c1C [Example 2-28] | 100% | 90% | 100% | 100% | 100% | 100% | 100% | 100% | 80% | 80% | 80% | 80% | 100% | 90% | 80% | 100% | 100% | 80% | 90% | – | Pre-emergence action against ECHCG in % (ECHCG [1]; 20 g/ha): 80%; Pre-emergence action against POLCO in % (POLCO): 90%; Pre-emergence action against DIGSA in % (DIGSA [9]; dosage 20 g/ha): 100%; Pre-emergence action against DIGSA in % (DIGSA [9]; dosage 80 g/ha): 100%; Post-emergence action at 5 g/ha against AVEFA in % (AVEFA [11]; 5 g/ha): 80%; Post-emergence action against DIGSA (DIGSA [14]): 80%; Post-emergence action against ABUTH in % (ABUTH [15]; dosage 5 g/ha): 80% |
| CCn1nnnc1NC(=O)c1ccc(C(F)(F)F)c(C(=O)NCC2CC2)c1SC [Example 2-84] | 100% | 90% | 100% | 100% | 80% | 100% | 100% | 100% | 100% | 100% | 80% | 80% | 100% | 100% | 80% | 100% | 100% | 90% | 100% | 80% | Pre-emergence action against ECHCG in % (ECHCG [1]; 20 g/ha): 90%; Post-emergence action against SETVI in % (SETVI [18]; dosage 5 g/ha): 80%; Post-emergence action against SETVI in % (SETVI [18]; dosage 20 g/ha): 100%; Post-emergence action against VIOTR in % (VIOTR [19]; 5 g/ha): 100%; Post-emergence action against VIOTR in % (VIOTR [19]; 20 g/ha): 100%; Post-emergence action at 20 g/ha against AMARE in % (AMARE [20]): 100%; Pre-emergence action against VERPE in % (VERPE [12]; dosage 20 g/ha): 80%; Post-emergence action against ALOMY in % (ALOMY [21]): 90%; Pre-emergence action against PHBPU in % (PHBPU [22]): 90% |
| CCn1nnnc1NC(=O)c1ccc(C(F)F)c(C(=O)NCC(F)F)c1SC [Example 2-92] | 100% | 90% | 100% | 100% | 90% | 100% | 100% | 100% | 80% | 100% | 80% | 90% | 100% | 80% | 100% | 100% | 100% | 90% | 80% | 90% | Post-emergence action against SETVI in % (SETVI [18]; dosage 5 g/ha): 80%; Post-emergence action against SETVI in % (SETVI [18]; dosage 20 g/ha): 100%; Post-emergence action against VIOTR in % (VIOTR [19]; 5 g/ha): 100%; Post-emergence action against VIOTR in % (VIOTR [19]; 20 g/ha): 100%; Post-emergence action at 20 g/ha against AMARE in % (AMARE [20]): 100%; Pre-emergence action against SETVI in % (SETVI [10]; dosage 20 g/ha): 100%; Post-emergence action against ALOMY in % (ALOMY [21]): 80%; Pre-emergence action against PHBPU in % (PHBPU [22]): 90%; Post-emergence action against ABUTH in % (ABUTH [15]; dosage 5 g/ha): 80%; Pre-emergence action against AVEFA (AVEFA [16]; 20 g/ha, scored visually after 3 weeks, 100% = plants have died, 0% = like control plants): 80% |
| CCn1nnnc1NC(=O)c1ccc(C(F)F)c(C(=O)NCC(F)F)c1Br [Example 2-230] | 90% | – | 100% | 100% | 90% | 100% | 100% | 100% | – | – | – | – | 90% | 80% | 100% | 90% | 100% | 80% | 80% | 90% | Post-emergence action against SETVI in % (SETVI [18]; dosage 20 g/ha): 100%; Post-emergence action at 20 g/ha against AMARE in % (AMARE [20]): 100%; Pre-emergence action against DIGSA in % (DIGSA [9]; dosage 20 g/ha): 100%; Pre-emergence action against DIGSA in % (DIGSA [9]; dosage 80 g/ha): 100%; Post-emergence action against ALOMY in % (ALOMY [21]): 90%; Pre-emergence action against PHBPU in % (PHBPU [22]): 80%; Post-emergence action against DIGSA (DIGSA [14]): 90% |
